One test deals with TNF-α. The experiment in a line: TNF-α expression level (qPCR) after introduction of GFP-tagged CAR-T plasmid. The class given is cell-based, human. Conditions: Jurkat E6.1; JSH-23 0.1 μM; compared to CAR-T plasmid introduced without JSH-23. The procedure:
(§1) Human leukemia T cells (Jurkat E6.1) were seeded in a 6-well plate to be about 10,000 cells/cm^2. As a culture solution, RPMI1640 medium comprising 10% bovine serum was used. To this, 0.1 μM of JSH-23 was added, or for comparison, 0.1% (v/v) DMSO instead of JSH-23 was added and used.
A lipofection solution was prepared by adding Lipofectamine 2000 and GFP-tagged CAR-T plasmid to OptiMEM. The amount of plasmid was prepared to be 1 pg/cell. The prepared lipofection solution was mixed well according to the manufacturer's recommended protocol and allowed to stand at room temperature for about 15 minutes.
Next, the lipofection solution was added to the plate seeded with human leukemia T cells, and cultured in a CO2 incubator at 37° C. for about 1 day (18 hours). After culturing, all the culture solution comprising the lipofection solution was removed and replaced with a new culture solution having the same composition as before the addition of the lipofection solution. […]
cDNA was synthesized from the purified RNA using SuperScript™ III Reverse Transcriptase according to the manufacturer's protocol. qPCR was performed using the synthesized cDNA and PCR primers as well as PowerTrack™ SYBR Green Master Mix. The measured Ct value of TNF-α was normalized with the Ct value of β-actin, a housekeeping gene.
(In general: Real-time PCR tracks product formation cycle by cycle.)

The subject of a further test is IFN-α. The experiment in a line: IFN-α expression level (qPCR) after introduction of GFP-tagged CAR-T plasmid. The class given is cell-based, human. Conditions: Jurkat E6.1; JSH-23 0.1 μM; compared to CAR-T plasmid introduced without JSH-23.
The subject of test [1] is Human leukemia T cells (Jurkat E6.1). The experiment in a line: Introduction of GFP-tagged CAR-T plasmid by lipofection, yield of GFP-positive cells. The format is cell-based. Conditions: JSH-23 0.1 μM; GFP-tagged CAR-T plasmid 1 pg/cell. The procedure: as §1
A lipofection solution was prepared by adding Lipofectamine 2000 and GFP-tagged CAR-T plasmid to OptiMEM. The amount of CAR-T plasmid was prepared to be 1 pg/cell. The prepared lipofection solution was mixed well according to the manufacturer's recommended protocol and allowed to stand at room temperature for about 15 minutes.
Next, the lipofection solution was added to the plate seeded with human leukemia T cells, and cultured in a CO2 incubator at 37° C. for about 1 day (18 hours). […]
Twenty-four hours after the final introduction of genes, the cells were collected and centrifuged at 800 rpm for 5 minutes using a centrifuge, to collect the cells. The collected cells were counted using a hemocytometer. Furthermore, the GFP-positive percentage of the collected cells was measured using a flow cytometer. The yield of the number of GFP-positive cells was calculated from the number of cells counted and the GFP-positive percentage.

For a further test, the system named is human myoblasts. The experiment in a line: Introduction of GFP mRNA by lipofection, yield of GFP-positive cells. The class given is cell-based. Particulars: 5 pg/cell. The procedure: (§2) Human mesenchymal stem cells were seeded in a 6-well plate to be about 10,000 cells/cm^2. Human myoblasts were seeded in another 6-well plate to be about 20,000 cells/cm^2. As a culture solution, a basal medium for each cell supplemented with 0.1, 1, or 10 μM of JSH-23 was used. As a control, a basal medium for each cell supplemented with 0.1% (v/v) DMSO instead of JSH-23 was used as a culture solution.
(§3) A lipofection solution was prepared by adding Lipofectamine RNAiMAX and fluorescent protein GFP mRNA to OptiMEM. As the GFP mRNA, that containing uridine or that containing pseudouridine instead of uridine was used. In addition, for those containing pseudouridine, a basal medium for each cell supplemented with 1 μM of JSH-23 was used, and as a control, a basal medium for each cell supplemented with 0.1% (v/v) DMSO instead of JSH-23 was used as a culture solution. It was prepared so that the amount of mRNA was 10 pg/cell for human mesenchymal stem cells and 5 pg/cell for human myoblasts. The prepared lipofection solution was mixed well according to the manufacturer's recommended protocol and allowed to stand at room temperature for about 15 minutes.
(§4) Next, each lipofection solution was added to the plate seeded with human mesenchymal stem cells or human myoblasts, and cultured in a CO2 incubator at 37° C. for about 1 day (18 hours) (human mesenchymal stem cells) or for 2 days (42 hours) (human myoblasts). After culturing, all the culture solution comprising the lipofection solution was removed and replaced with a new culture solution having the same composition as before the addition of the lipofection solution.
(§5) After another 6 hours, the above lipofection solution was newly prepared, added again to the plate seeded with human mesenchymal stem cells or human myoblasts, and cultured in a CO2 incubator at 37° C. for about 1 day (18 hours) (mesenchymal stem cells) or about 2 days (42 hours) (human myoblasts). These steps were repeated so that the introduction of genes was performed a total of 4 times.
(§6) Twenty-four hours after the final introduction of genes, the cells were detached with a cell detachment solution, centrifuged at 600×g for 5 minutes using a centrifuge, to collect the cells. The collected cells were counted using a hemocytometer. Furthermore, the GFP-positive percentage of the collected cells was measured using a flow cytometer. The yield of the number of GFP-positive cells was calculated from the number of cells counted and the GFP-positive rate.
(§7) Human mesenchymal stem cells were seeded in a 6-well plate to be about 10,000 cells/cm^2. Human myoblasts were seeded in another 6-well plate to be about 20,000 cells/cm^2. As a culture solution, a basal medium for each cell supplemented with 1 μM of calcitriol was used. As a control, a basal medium for each cell supplemented with 0.1% (v/v) DMSO instead of calcitriol was used as a culture solution.
(§8) A lipofection solution was prepared by adding Lipofectamine RNAiMAX and fluorescent protein GFP mRNA to OptiMEM. As the GFP mRNA, that containing uridine, or that containing pseudouridine instead of uridine was used. It was prepared so that the amount of mRNA was 10 pg/cell for human mesenchymal stem cells and 5 pg/cell for human myoblasts. The prepared lipofection solution was mixed well according to the manufacturer's recommended protocol and allowed to stand at room temperature for about 15 minutes.

Test [2] has as its system human mesenchymal stem cells. Described as above. The class given is cell-based. Conditions: 10 pg/cell. As for the experimental part: as §2, §3, §4, §5, §6, §7, §8
[3] abbreviates: GFP mRNA containing pseudouridine instead of uridine, JSH-23 1 μM.

We go through one compound from patent publication US20250327032A1, “AGENT FOR AVOIDING IMMUNE RESPONSE OF TRANSGENIC CELLS” (HYPERION DRUG DISCOVERY CO., LTD., priority 2021, published 2025).

For `Cc1ccc(NCCCc2ccccc2)c(N)c1` [JSH-23], the “increase in the expression level of TNF-α” value in the test on TNF-α was “reduced”. In addition, in the test on IFN-α, the “increase in the expression level of IFN-α” value was “reduced”. The “number of GFP-positive cells compared to the control (control set to 1)” value in test [1] is given as at least 2 times. Besides, the “yield of GFP-positive cells compared to the control (control set to 1)” value with human myoblasts (setting [3]) is listed as at least 2 times; in the test on human myoblasts (GFP mRNA containing uridine, JSH-23 0.1, 1 or 10 μM), at least 3 times; in test [2] (setting [3]), at least 7 times; in test [2] (GFP mRNA containing uridine, 4 introductions, JSH-23 0.1, 1 or 10 μM, maximal at 1 μM, control 0.1% DMSO), at least 7 times.
